Assay results taken from article PMC13288994, “Identification and characterization of novel chikungunya virus polymerase inhibitors” (Journal of Virology, 2026).

Tests used:
[1] = tested on: CHIKV-nLuc (181/25 strain); experiment: microbe, parasite or virus in culture; assay type: cell-based, Chikungunya virus; conditions: Chikungunya virus, 384-well format, read 20 h after infection, read-out: Normalized percent inhibition in primary screen
in vitro [2] = conditions: human
VSV-nLuc = experiment: microbe, parasite or virus in culture; assay type: cell-based; conditions: Vesicular stomatitis virus, Vero C1008, read-out: Antiviral potency (EC50 [µM]) VSV
HPIV3-nLuc = experiment: microbe, parasite or virus in culture; assay type: cell-based; conditions: Human respirovirus 3, Vero C1008; VeroE6 cells; read-out: Antiviral potency (EC50 [µM]) HPIV3
SARS-CoV-2-nLuc = experiment: microbe, parasite or virus in culture; assay type: cell-based; conditions: Severe acute respiratory syndrome coronavirus 2; VeroE6-TMPRSS2 cells; read-out: Antiviral potency (EC50 [µM]) SARS-CoV-2
SINV-GLuc = experiment: microbe, parasite or virus in culture; assay type: cell-based; conditions: Sindbis virus, Vero C1008; VeroE6 cells; read-out: Antiviral potency (EC50 [µM]) SINV
RSV A2-L19F = experiment: microbe, parasite or virus in culture; assay type: cell-based; conditions: human respiratory syncytial virus; Hep-2 cells; read-out: Antiviral potency (EC50 [µM]) RSV
in vitro [3] = conditions: African green monkey
VEEV-TC83-nLuc = experiment: microbe, parasite or virus in culture; assay type: cell-based; conditions: Venezuelan equine encephalitis virus, Vero C1008, read-out: Antiviral potency (EC50 [µM]) VEEV
CHIKV replicon = experiment: microbe, parasite or virus in culture; conditions: Chikungunya virus, U2OS, read-out: Antiviral potency (EC50 [µM]) CHKV replicon
in vitro [4] = conditions: human; remark: listed apart in the source

CCNc1nc(C)cc(N2CCN(C(=O)c3ccc(F)cc3Cl)CC2)n1 [GAP-1358964] showed an inhibition at 5 µM [1] of 91.6%.
Compound O=C(CSc1c2c(nc3cc(Cl)ccc13)CCCC2)Nc1ccc2c(c1)OCCO2 [GAP-1022901] has a CC50 (in vitro [2]) greater than 20 µM, an EC50 (VSV-nLuc) greater than 20 µM and an EC50 (HPIV3-nLuc) greater than 20 µM. The EC50 (SARS-CoV-2-nLuc) was greater than 20 µM, the EC50 (SINV-GLuc) was greater than 20 µM and the EC50 (RSV A2-L19F) was greater than 10 µM. It also gave an inhibition at 5 µM [1] of 82.1% and a CC50 (in vitro [3]) greater than 20 µM.
Work on Cc1ccc2sc(N(CCCN(C)C)C(=O)c3nc4ccccc4s3)nc2c1C [GAP-1041908] yielded a CC50 (in vitro [2]) of 31.4 µM, an EC50 (VSV-nLuc) of 32.7 µM and an EC50 (HPIV3-nLuc) of 41 µM. It also gave an EC50 (VEEV-TC83-nLuc) of 18.8 µM, an EC50 (CHIKV replicon) of 32.1 µM and an EC50 (SARS-CoV-2-nLuc) of 28 µM. It also gave a selectivity ratio (in vitro [4]) of less than 10, an EC50 (SINV-GLuc) of 18.9 µM and an inhibition at 5 µM [1] of 94.7%. For the same compound, the CC50 (in vitro [3]) was 34.9 µM.
Compound CC(C)(C)c1ccc(C(=O)On2c(-c3ccccc3F)nc3ccccc3c2=O)cc1 [GAP-1000864] has a CC50 (in vitro [2]) greater than 20 µM, an EC50 (VSV-nLuc) greater than 20 µM and an EC50 (HPIV3-nLuc) greater than 20 µM. For the same compound, the EC50 (SARS-CoV-2-nLuc) was greater than 20 µM, the EC50 (SINV-GLuc) was greater than 20 µM and the EC50 (RSV A2-L19F) was greater than 10 µM. It also gave an inhibition at 5 µM [1] of 91% and a CC50 (in vitro [3]) greater than 20 µM.
For CCN1CCc2nc3sc(C(=O)c4ccccc4)c(C)c3cc2C1 [GAP-1022776], the CC50 (in vitro [2]) was 19.2 µM, the EC50 (VSV-nLuc) was greater than 20 µM and the EC50 (HPIV3-nLuc) was greater than 20 µM. The EC50 (SARS-CoV-2-nLuc) was greater than 20 µM, the EC50 (SINV-GLuc) was greater than 20 µM and the EC50 (RSV A2-L19F) was greater than 10 µM. The inhibition at 5 µM [1] was 85.7% and the CC50 (in vitro [3]) was 25.2 µM.
Compound CCS(=O)(=O)c1ncc(Cl)c(C(=O)Nc2nnc(C(C)C)s2)n1 [GAP-1027282] has a CC50 (in vitro [2]) of 16.7 µM, an EC50 (VSV-nLuc) greater than 20 µM and an EC50 (HPIV3-nLuc) greater than 20 µM. The EC50 (SARS-CoV-2-nLuc) was greater than 20 µM, the EC50 (SINV-GLuc) was greater than 20 µM and the EC50 (RSV A2-L19F) was greater than 10 µM. The inhibition at 5 µM [1] was 97.2% and the CC50 (in vitro [3]) was greater than 20 µM.
Cn1nc(CN(C(=O)c2ccc(F)cc2)c2ccccc2)c2c1CCN(S(=O)(=O)Cc1ccccc1F)C2 [GAP-1081237] showed a CC50 (in vitro [2]) greater than 100 µM, an EC50 (VSV-nLuc) of 65.2 µM and an EC50 (HPIV3-nLuc) of 64.9 µM. For the same compound, the EC50 (VEEV-TC83-nLuc) was 10 µM, the EC50 (CHIKV replicon) was 12.4 µM and the EC50 (SARS-CoV-2-nLuc) was greater than 100 µM. For the same compound, the EC50 (SINV-GLuc) was 65.7 µM, the EC50 (RSV A2-L19F) was greater than 10 µM and the inhibition at 5 µM [1] was 80.2%. It also gave a CC50 (in vitro [3]) greater than 100 µM.
